Reference: paper PMC10818589 (2024)

Test system: d(5′-CGCGAATTCGCG-3′)2 (DNA, duplex) CGCGAATTCGCG
Experiment: ethidium bromide displacement, fluorescence quenching, double-log plot
Details: phosphate buffer 100 mM (cation not given); pH 7.0, 298 K; 20 μM duplex saturated with EtBr (5.07 μM), displaced; compound slowly decomposes in water; apparent

Q: `[Ru+2].[Ru+2].[Ru+2].[Ru+2].[Ru+2].[Ru+2].[Ru+2].[Ru+2].[Ru+2].[Ru+2].[Ru+2].[Ru+2].c1cc2ccc1-c1ccc(cc1)-c1ccc(cc1)-c1ccc(cc1)-c1ccc(cc1)-c1ccc(cc1)-c1ccc(cc1)-c1ccc(cc1)-c1ccc(cc1)-c1ccc(cc1)-c1ccc(cc1)-c1ccc-2cc1.c1cc[cH-]c1.c1cc[cH-]c1.c1cc[cH-]c1.c1cc[cH-]c1.c1cc[cH-]c1.c1cc[cH-]c1.c1cc[cH-]c1.c1cc[cH-]c1.c1cc[cH-]c1.c1cc[cH-]c1.c1cc[cH-]c1.c1cc[cH-]c1` was tested. Which Kb did it give?
A: 3.162 × 10^5 ± 0.001 M^-1
